In this assay the target is T1, CDK1/cyclin B (Homo sapiens, UniProt P06493).
T1 construct: purchased Thermo Fisher Scientific (Life Technologies) SelectScreen
Put plainly: SelectScreen Z'LYTE. The class given is biochemical. The method, boiled down: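 Percent values come from Thermo SelectScreen profiling of NU5455, combining activity and binding assays. CSF1R was run in Z'LYTE format at Km app ATP, and CAMK1 in Adapta format with ATP listed at 10.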

Usually inhibition stands for the drop in the measured response relative to a control, in per cent. Higher therefore signals a strong effect.

T1 sequence (P06493 whole entry): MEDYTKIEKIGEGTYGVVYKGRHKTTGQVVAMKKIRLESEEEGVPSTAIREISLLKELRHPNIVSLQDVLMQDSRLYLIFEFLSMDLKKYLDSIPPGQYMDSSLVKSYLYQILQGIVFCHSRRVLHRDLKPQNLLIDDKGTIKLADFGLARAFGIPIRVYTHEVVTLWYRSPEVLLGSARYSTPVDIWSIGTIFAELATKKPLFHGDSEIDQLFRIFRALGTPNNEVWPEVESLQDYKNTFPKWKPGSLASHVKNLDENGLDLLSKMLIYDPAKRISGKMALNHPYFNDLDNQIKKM
T1 sequence (P14635 whole entry partner): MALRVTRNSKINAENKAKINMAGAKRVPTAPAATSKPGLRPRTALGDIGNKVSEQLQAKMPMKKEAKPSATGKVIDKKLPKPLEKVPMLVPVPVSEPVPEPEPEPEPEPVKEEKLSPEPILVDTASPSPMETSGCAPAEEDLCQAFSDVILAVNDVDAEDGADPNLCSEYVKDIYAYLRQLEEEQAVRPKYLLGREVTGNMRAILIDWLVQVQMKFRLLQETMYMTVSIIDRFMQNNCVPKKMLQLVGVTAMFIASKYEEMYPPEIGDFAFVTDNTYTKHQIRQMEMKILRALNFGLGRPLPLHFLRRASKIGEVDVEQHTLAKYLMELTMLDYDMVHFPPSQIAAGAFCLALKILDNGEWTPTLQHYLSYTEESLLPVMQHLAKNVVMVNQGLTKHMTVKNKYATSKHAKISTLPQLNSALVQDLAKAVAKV

In turn, `CN(C(=O)CN1CCOCC1)c1ccc2sc3c(-c4cccc5c(=O)cc(N6CC7CCC(C6)O7)oc45)cccc3c2c1` [NU5455] came in with an inhibition at 1 µM of 1.6%.
